Laboratory results published in US4691017A, “2-hydroxy-and 2-halo-ethylthiopyridine intermediates for preparing antiulcer compounds” (Richter Gedeon Vegyeszeti Gyar Rt., priority 1984, dated 1987).
Where a name gives a salt, the structure may show the parent alone. Read-outs that look alike come from different tables or passages of the source.

Experiments:
[1] = tested on: Gastric necrosis (gastric oedema and haemorrhagic injury); experiment: Gastric necrosis induced by acidic ethanol (cytoprotective activity); type: in vivo, Female RG-Wistar rats; conditions: for ED50: Rattus norvegicus, po, 1 h, acidic ethanol, p.o.
Description: Water was given ad libitum. […] One hour later the animals were killed by overdosing with ether. Stomachs were removed and opened along the major curvature. After cleaning the wet weight of the stomachs was determined, and the difference between the wet weight obtained and the wet weight of the stomachs of untreated (control) animals was calculated, in order to determine the degree of gastric oedema. The stomachs were then dried and the gastic lesions were observed visually. Lengths of lesions were measured in millimeters. (Derelanko and Long, Proc. Soc. Exp. Biol. and Med. 166, 394 (1981)), and the length of the average lesions per stomach was given. Degree of cytoprotection was expressed in % related to the control. The statistical evaluation of the results was carried out by the Student test.

Intestinal ulcer = experiment: Indomethacin-induced intestinal ulceration (inflation technique); type: in vivo, Female RG-Wistar rats
Antral ulcer = experiment: Indomethacin-induced antral ulceration; type: in vivo, Female RG-Wistar rats
Description: Indomethacin-induced antral and intestinal ulceration
Female RG-Wistar rats weighing 120 to 150 g. each were fasted for 24 hours. Water was added ad libitum. The animals were then given access to food for one hour, and 30 minutes after the administration of the test compounds a 15-mg./kg. oral dose of indomethacin was administered. 24 hours after indomethacin treatment the animals were killed by overdose of ether. Stomachs and the entire intestine were removed, the stomachs were opened along the main curvature, and the total ulcerated area (ulceration index, mm^2) was determined.

[2] = tested on: Aspirin-induced gastric ulceration; experiment: Inhibition of aspirin-induced gastric ulceration; type: in vivo, Female H. Wistar rats
Description: Inhibition of aspirin-induced gastric ulceration
Female H. Wistar rats weighing 120 to 150 g each were fasted for 24 hours. Water was given ad libitum. The stomach ulcer was induced by oral administration of aspirin in a dose of 100 mg./kg. (in Tween 80 suspension). The test was given simultaneously with the administration of aspirin, orally. The animals were killed by overdose if ether, 4 hours after treatment. The stomach was excised and cut along the large curvature. The red-brownish erosions on the glandular surface were counted. When evaluating the test results, the number of ulcers per stomach and its proportion to the number of ulcers found in the stomachs of control animals (inhibition of ulceration) were determined.

Gastric acid secretion = Gastric acid secretion inhibiting activity on Shay rats; type: in vivo, Female H-Wistar rats
Description: Gastric acid secretion inhibiting activity on Shay rats (Gastroenterology, 5, 43-46 (1945)
Female H-Wistar rats weighing 120-150 g each were fasted for 24 hours. Water was added ad libitum. The pylorus of the animals was ligated under light ether narcosis. The test drugs were administered during the operation, partially orally, partially intraperitoneally. 4 hours after treatment the animals were killed by an overdose of ether. The stomach was excised and cut along the large curvature. The volume and the pH of the contents were determined and in each case the HCl production was determined by titration.

[3] = read-out: Gastric oedema inhibition ED50
[4] = read-out: Haemorrhagic injury inhibition ED50
[5] = indomethacin 15 mg./kg. p.o. with 50 mg./kg. p.o. test compound
[6] = indomethacin 15 mg./kg. p.o. with 25 mg./kg. p.o. test compound
[7] = indomethacin 15 mg./kg. p.o. with 25 mg./kg. p.o. test compound, N 20
[8] = indomethacin 15 mg./kg. p.o. with 5 mg./kg. p.o. test compound

SMILES: NCCSc1ncccc1C(=O)c1ccc(Cl)cc1 [C, 2-[(2-aminoethyl)-thio]-3-(p-chlorobenzoyl)-pyridine.HCl]
- ED50 [1, 3]: 10 mg/kg
- ED50 [1, 4]: 15 mg/kg

SMILES: CCCc1cc(C(=O)c2ccccc2)cc(SCCN)n1 [Compound E, 2-[(2-aminoethyl)-thio]-4-benzoyl-6-propylpyridine.2 HCl]
- ED50 [1, 3]: 20 mg/kg
- ED50 [1, 4]: 25 mg/kg

SMILES: Cc1ccc(C)c(C(=O)c2cccnc2SCCN)c1 [D, 2-[(2-aminoethyl)-thio]-3-(2,5-dimethylbenzoyl)pyridine.HCl]
- ED50 [1, 3]: 10 mg/kg
- ED50 [1, 4]: 10 mg/kg

SMILES: CN/C(=N/CCSCc1nc[nH]c1C)NC#N [cimetidine, reference compound]
- Intestinal ulcer, tensile strength 24 hours after indomethacin treatment (Intestinal ulcer; [5]): 161 ± 8 mmHg
- Haemorrhagic injury ([1]; 25 mg./kg. p.o.): 82 ± 21 mm
- Haemorrhagic injury inhibition ([1]; 25 mg./kg. p.o.): 2%
- Oedema ([1]; 25 mg./kg. p.o., N 8): 441 ± 82 mg
- Haemorrhagic injury ([1]; 100 mg./kg. p.o.): 42 ± 13 mm
- Haemorrhagic injury inhibition ([1]; 100 mg./kg. p.o.): 46%
- Oedema inhibition ([1]; 100 mg./kg. p.o.): 21%
- Oedema ([1]; 100 mg./kg. p.o., N 8): 301 ± 42 mg
- Antral ulcer, ulceration index (Antral ulcer; [5]): 14.7 mm^2 /stomach
- Antral ulcer, rats having no ulcer (Antral ulcer; indomethacin 15 mg./kg. p.o. with 50 mg./kg. p.o. test compound, N 10): 2

SMILES: CC(=O)N(CCSc1ncccc1C(=O)c1ccccc1)C(C)=O [B, 3-benzoyl-2-{[2-(N,N-diacetylamino)-ethyl]-thio}-pyridine]
- ED50 [1, 3]: 1 mg/kg
- ED50 [1, 4]: 2 mg/kg

SMILES: CN1CCN(CC(=O)N2c3ccccc3C(=O)Nc3cccnc32)CC1 [Pirenzepine, reference compound]
- Intestinal ulcer, tensile strength 24 hours after indomethacin treatment (Intestinal ulcer; [6]): 152 ± 8 mmHg
- Antral ulcer, ulceration index (Antral ulcer; [6]): 12.0 mm^2 /stomach
- Antral ulcer, rats having no ulcer (Antral ulcer; [7]): 5

SMILES: NCCSc1ncccc1C(=O)c1ccccc1 [Compound A, 2-[(2-aminoethyl)-thio]-3-benzoyl-pyridine.HCl]
- Intestinal ulcer, tensile strength 24 hours after indomethacin treatment (Intestinal ulcer; [8]): 162 ± 14 mmHg
- Intestinal ulcer, tensile strength 24 hours after indomethacin treatment (Intestinal ulcer; [6]): 198 ± 9 mmHg
- Inhibition (of ulceration) ([2]; aspirin 100 + test compound 1 mg./kg.p.o.): 38%
- Ulcer/Stomach ([2]; aspirin 100 + test compound 1 mg./kg.p.o., N 20): 9.4 + 4.1
- Inhibition (of ulceration) ([2]; aspirin 100 + test compound 2 mg./kg.p.o.): 47%
- Ulcer/Stomach ([2]; aspirin 100 + test compound 2 mg./kg.p.o., N 10): 8.0 + 3.0
- Inhibition (of ulceration) ([2]; aspirin 100 + test compound 10 mg./kg.p.o.): 76%
- Ulcer/Stomach ([2]; aspirin 100 + test compound 10 mg./kg.p.o., N 10): 3.7 + 4.5
- Haemorrhagic injury ([1]; 0.05 mg./kg. p.o.): 48 ± 19 mm
- Haemorrhagic injury inhibition ([1]; 0.05 mg./kg. p.o.): 45%
- Oedema inhibition ([1]; 0.05 mg./kg. p.o.): 19%
- Oedema ([1]; 0.05 mg./kg. p.o., N 8): 307 ± 42 mg
- Haemorrhagic injury ([1]; 0.1 mg./kg. p.o.): 38 ± 18 mm
- Oedema ([1]; 0.1 mg./kg. p.o., N 10): 209 ± 51 mg
- Haemorrhagic injury inhibition ([1]; 0.1 mg./kg. p.o., p < 0.05): 56%
- Oedema inhibition ([1]; 0.1 mg./kg. p.o., p < 0.05): 45%
- Haemorrhagic injury ([1]; 1.0 mg./kg. p.o.): 5 ± 1.5 mm
- Oedema ([1]; 1.0 mg./kg. p.o., N 12): 72 ± 28 mg
- Haemorrhagic injury inhibition ([1]; 1.0 mg./kg. p.o., p < 0.01): 96%
- Haemorrhagic injury ([1]; 10.0 mg./kg. p.o.): 6 ± 3 mm
- Oedema ([1]; 10.0 mg./kg. p.o., N 12): 22 ± 12 mg
- Haemorrhagic injury inhibition ([1]; 10.0 mg./kg. p.o., p < 0.01): 94%
- Oedema inhibition ([1]; 10.0 mg./kg. p.o., p < 0.01): 95%
- ED50 [1, 3]: 0.2 mg/kg
- ED50 [1, 4]: 0.1 mg/kg
- gastrocytoprotective activity after indomethacin pre-treatment ([1]; indomethacin pre-treatment): not eliminated by indomethacin pre-treatment
- gastrocytoprotective activity, selectivity in words ([1]; versus gastric acid secretion inhibition): selective gastrocytoprotective activity
- Antral ulcer, ulceration index (Antral ulcer; [8]): 18.9 mm^2 /stomach
- Antral ulcer, rats having no ulcer (Antral ulcer; indomethacin 15 mg./kg. p.o. with 5 mg./kg. p.o. test compound, N 15): 3
- Antral ulcer, ulceration index (Antral ulcer; [6]): 4.0 mm^2 /stomach
- Antral ulcer, rats having no ulcer (Antral ulcer; [7]): 12
- Secretion HCl inhibition (Gastric acid secretion; 5 mg./kg. p.o.): 37%
- Secretion HCl/4 hours (Gastric acid secretion; 5 mg./kg. p.o., N 5): 357 ± 35 μmol/100 g body weight
- Secretion HCl inhibition (Gastric acid secretion; 6 mg./kg. i.p.): 11%
- Secretion HCl/4 hours (Gastric acid secretion; 6 mg./kg. i.p., N 5): 505 ± 29 μmol/100 g body weight
- Secretion HCl inhibition (Gastric acid secretion; 10 mg./kg. p.o.): 38%
- Secretion HCl/4 hours (Gastric acid secretion; 10 mg./kg. p.o., N 15): 350 ± 38 μmol/100 g body weight
- Secretion HCl/4 hours (Gastric acid secretion; 12 mg./kg. i.p., N 10): 200 ± 30 μmol/100 g body weight
- Secretion HCl inhibition (Gastric acid secretion; 12 mg./kg. i.p., p < 0.01): 65%
- Secretion HCl inhibition (Gastric acid secretion; 20 mg./kg. p.o.): 34%
- Secretion HCl/4 hours (Gastric acid secretion; 20 mg./kg. p.o., N 15): 372 ± 40 μmol/100 g body weight
- Secretion HCl inhibition (Gastric acid secretion; 25 mg./kg. i.p.): 100%
- Secretion HCl/4 hours (Gastric acid secretion; 25 mg./kg. i.p., N 5): 0 μmol/100 g body weight
- Secretion HCl/4 hours (Gastric acid secretion; 40 mg./kg. p.o., N 5): 124 ± 27 μmol/100 g body weight
- Secretion HCl inhibition (Gastric acid secretion; 40 mg./kg. p.o., p < 0.01): 70%
- higher dose at which gastric acid secretion inhibiting activity was observed (relative to gastrocytoprotective dose) (Gastric acid secretion; selectivity of cytoprotection over acid secretion inhibition): about 500 times
